From patent publication US20260240740A1, “MULTI-PHOTOPROTECTIVE COMPOUNDS AND USES THEREOF” (SKINOSIVE, priority 2022, published 2026)
Values joined by “and” are separate entries in the source; they are usually repeats but may differ in a detail not shown here. Equal values may be shown once.

What was measured:
[1] = Photostability after UV irradiation, absorbance spectra; format: physicochemical; details: for Absorbance peak, Without UV irradiation / Absorbance peak, Irradiation 2000 J/dm2 / Absorbance peak, Irradiation 4000 J/dm2 / λmax after irradiation / Effect of irradiation on UV absorbance profile: Ethanol; for Absorbance peak, Without UV irradiation / Absorbance peak, Irradiation 2000 J/dm2 / Absorbance peak, Irradiation 4000 J/dm2: 1 mM; for Absorbance peak, Irradiation 2000 J/dm2: 1 h; for Absorbance peak, Irradiation 4000 J/dm2 / Absorbance peak, Irradiation 4000 J/dm2, first or only peak / Absorbance peak, Irradiation 4000 J/dm2, second peak: 2 h; for Absorbance peak, Without UV irradiation, first or only peak / Absorbance peak, Without UV irradiation, second peak / Absorbance peak, Irradiation 4000 J/dm2, first or only peak / Absorbance peak, Irradiation 4000 J/dm2, second peak: 2 mM; for λmax after irradiation / Effect of irradiation on UV absorbance profile: 2000 or 4000 J/dm2 for 1 or 2 hours
Experimental: (§1) Compound #2 (OOD), Univul A plus (DHHB), Octocrylene (OCR), and Univul A plus (DHHB)+Octocrylene (OCR) were dissolved in Ethanol at 1 mM and were irradiated at 2000 and 4000 J/dm2 for 1 h and 2 h in a 24-well plate, respectively, in 2 replicates (1 replicate for HPLC and 1 replicate for absorbance spectra).
as §1, with “#4 (OHD),” for “#2 (OOD),”
(§2) Compound #5 (BOO), Tinosorb S (BEMT), and Octocrylene (OCR) were dissolved in Dubdis at 2 mM and were irradiated at 4000 J/dm2 for 2 h in a 24-well plate, respectively, in 2 replicates (1 replicate for HPLC and 1 replicate for absorbance spectra).

[2] = Photostability after UV irradiation, HPLC; format: physicochemical
Experimental: as §1
as §1, with “#4 (OHD),” for “#2 (OOD),”
as §2

[3] = UV absorbance profile: λmax in solvents, FLUOstar plate reader; format: physicochemical; details: for λmax double peak, first peak / λmax double peak, second peak: 50 μM; for λmax: 125 μM
Experimental: Compound #2 (OOD), Univul A plus (DHHB)+Octocrylene (OCR) were dissolved in a solvent at the same concentration (125 μM).
Compound #4 (OHD), Univul A plus (DHHB)+Octocrylene (OCR) were dissolved in a solvent at the same concentration (125 μM).
Compound #5 (BOO) and BEMT (6,6′-(6-(4-methoxyphenyl)-1,3,5-triazine-2,4-diyl)bis(3-((2-ethylhexyl)oxy)phenol)=Tinosorb S)+Octocrylene (OCR) were dissolved in a solvent at the same concentration (50 μM).
UV Absorbance Profil of Compound #6 (BOO-OM) Compound #6 (BOO-OM) and BEMT (6,6′-(6-(4-methoxyphenyl)-1,3,5-triazine-2,4-diyl)bis(3-((2-ethylhexyl)oxy)phenol)=Tinosorb S)+Octocrylene (OCR) were dissolved in a solvent at the same concentration (50 μM).

[4] = system: thiolated polylysine matrix; assay: Bio adhesion on thiolated polylysine matrix (UV absorbance at 310 nm after ethanol washes); details: overnight incubation in ethanol/PBS (90%/10%), washed 10 times with ethanol
Experimental: Polylysine and Polylysine enriched in SH by thiolation of primary amines using Traut's reagent were used for coating 96-well microplates. UV filters (BOO and BOO-OM) were incubated overnight under orbital agitation on the different matrices (n=3 for each condition) (uncoated wells were used as negative controls), in an ethanol/PBS (90%/10%) solution. After incubation, each microplate well was thoroughly washed 10 times with ethanol, before measuring UV absorbance. Whole UV/Visible absorbance spectrum from 220 to 1000 nm were measured in the center of each microplate well. In addition, specific UV absorbance at 310 nm was measured by matrix scan over the whole the well as a 10×10 matrix.

[5] = system: pig skin; assay: UV protection ex vivo on pig skin by autofluorescence quenching
Experimental: UV Protection Performance of Compound #2 (OOD) UVB and UVA protections have been assessed ex vivo on pig skin by measuring the autofluorescence quenching. OOD (Compound #2), the mix of DHHB+OCR were solubilized at the same molar concentration in Dottisol (isosorbide dimethyl ether), covered 6.25 cm2 skin square and incubated 20 min or 2 hours at room temperatures, and then 7 mm skin punches were cut and placed in a black 96-well plate. UVB and UVA protections were measured after respectively an excitation at 300 nm and 355 nm and a fluorescence emission was read at 460 nm. DMSO was added on the pig skin before the reading of the residual fluorescence.
UVB and UVA protections have been assessed ex vivo on pig skin by measuring the autofluorescence quenching. BOO (Compound #5) and the mix of BEMT+OCR were solubilized at the same molar concentration in Dottisol (isosorbide dimethyl ether), covered 6.25 cm^2 skin square and incubated 4 hours at 34° C., washed or not with 10 mL Ethanol for 5 min, and then 7 mm diameter skin punches were cut and placed in a black 96-well plate. UVB and UVA protections were measured after respectively an excitation at 300 nm and 355 nm and a fluorescence emission was read at 460 nm.
UVB protection has been assessed ex vivo on pig skin by measuring the autofluorescence quenching. BOO (Compound #5), BOO-OM (Compound #6) and the mix of BEMT+OCR were solubilized at the same molar concentration in DMDA (dimethyl capramide), covered 6.25 cm2 skin square and incubated 2 hours at 34° C., washed or not with 10 mL Ethanol for 5 min, and then 7 mm diameter skin punches were cut and placed in a black 96-well plate. UVB protection was measured after respectively an excitation at 300 nm and a fluorescence emission was read at 460 nm.

[6] = Solubility in sunscreen solvents; format: physicochemical; details: 50° C.
Experimental: Compound #2 (OOD) and a sunscreen solvent were weighed in a Becher. The Becher was placed on a magnetic stir plate, heated up to 50° C., and the solution was vigorously mixed with a bar magnet.
Compound #4 (OHD) and a sunscreen solvent were weighed in a Becher. The Becher was placed on a magnetic stir plate, heated up to 50° C., and the solution was vigorously mixed with a bar magnet.
Compound #5 (BOO) and a sunscreen solvent were weighed in a Becher. The Becher was placed on a magnetic stir plate, heated up to 50° C., and the solution was vigorously mixed with a bar magnet.
Compound #6 (BOO-OM) and a sunscreen solvent were weighed in a Becher. The Becher was placed on a magnetic stir plate, heated up to 50° C., and the solution was vigorously mixed with a bar magnet.

[7] = pig skin autofluorescence after 4 h of incubation, Dottisol, 10 mL Ethanol 5 min, Mean +/− SD, N = 3
[8] = pig skin autofluorescence after 4 h of incubation, Dottisol, Mean +/− SD, N = 3
[9] = Cetiol HE (PEG-7 Glyceryl Cocoate)
[10] = pig skin autofluorescence after 2 h of incubation, Dottisol, Mean +/− SD, N = 3

| Absorbance peak, Without UV irradiation [1] | Absorbance peak, Irradiation 2000 J/dm2 [1] | Absorbance peak, Irradiation 4000 J/dm2 [1] | degradation observed by HPLC after irradiation ([2]; Ethanol) | Absorbance peak, Without UV irradiation, first or only peak ([1]; Dubdis) | Absorbance peak, Without UV irradiation, second peak ([1]; Dubdis) | Absorbance peak, Irradiation 4000 J/dm2, first or only peak ([1]; Dubdis) | Absorbance peak, Irradiation 4000 J/dm2, second peak ([1]; Dubdis) | degradation observed by HPLC after irradiation ([2]; Dubdis) | λmax after irradiation [1] | Effect of irradiation on UV absorbance profile ([1]; UVB and UVA range) | λmax ([3]; DMSO) | λmax ([3]; Ethanol) | purity by HPLC after irradiation ([2]; Ethanol) | purity by HPLC, non-irradiated ([2]; Ethanol) | soluble at ratio ([6]; Cetiol B (Dibutyl Adipate)) | Structure (SMILES) | other results |
| --- | --- | --- | --- | --- | --- | --- | --- | --- | --- | --- | --- | --- | --- | --- | --- | --- | --- |
| 357 nm | 357 nm | 357 nm | No degradation |  |  |  |  |  |  |  |  |  |  |  |  | CCCCCCOC(=O)c1ccccc1C(=O)c1ccc(N(CC)CC)cc1O [DHHB, diethylamino hydroxybenzoyl hexyl benzoate, reference compound] |  |
|  |  |  |  | 301 nm | 323 nm | 301 nm | 324 nm | No degradation |  |  |  |  |  |  |  | CCCCC(CC)COc1ccc(-c2nc(-c3ccc(OC)cc3)nc(-c3ccc(OCC(CC)CCCC)cc3OCCCCCCCCNC(=O)C(C#N)=C(c3ccccc3)c3ccccc3)n2)c(O)c1 (stereo not shown) [Compound #5, 2-cyano-N-(8-(5-((2-ethylhexyl)oxy)-2-(4-(4-((2-ethylhexyl)oxy)-2-hydroxyphenyl)-6-(4-methoxyphenyl)-1,3,5-triazin-2-yl)phenoxy)octyl)-3,3-diphenylacrylamide] | Absorbance peak, Irradiation 4000 J/dm2, second peak ([1]; Dubdis, listed as BOO): 323 nm; Effect of irradiation on UV absorbance profiles and λmax ([1]; Dubdis, UVB and UVA range, 4000 J/dm2 for 2 hours): did not modify; λmax double peak, first peak ([3]; Dottisol): 301 nm; λmax double peak, second peak ([3]; Dottisol): 324 nm; λmax double peak, first peak ([3]; Dubdis): 301 nm; λmax double peak, second peak ([3]; Dubdis): 323 nm; λmax absorbance shift in UVB versus the mix of BEMT-OCR ([3]; same molar concentration, Dubdis, same shift in Dottisol): 10 nm; purity by HPLC after irradiation ([2]; Dubdis): 98.13%; purity by HPLC, non-irradiated ([2]; Dubdis): 98.88%; bio adhesion, UV absorbance at 310 nm [4]: did not show a bio adhesion; UVA and UVB protections of the pig skin compared to the mix OCR+BEMT ([5]; 4 h incubation, Dottisol): similar; UVB Fluorescence (Ex300/Em460) No Wash ([5]; pig skin autofluorescence after 2 h of incubation, DMDA (dimethyl capramide), Mean +/− SD, N = 3): 42968 +/− 3131; UVB Fluorescence (Ex300/Em460) EtOH Wash ([5]; pig skin autofluorescence after 2 h of incubation, DMDA, 10 mL Ethanol 5 min, Mean +/− SD, N = 3): 152417 +/− 17275; UVA Fluorescence (Ex355/Em460) EtOH Wash [5, 7]: 217235 +/− 4204; UVB Fluorescence (Ex300/Em460) EtOH Wash [5, 7]: 205205 +/− 3116; UVA Fluorescence (Ex355/Em460) No Wash [5, 8]: 49672 +/− 9882; UVB Fluorescence (Ex300/Em460) No Wash [5, 8]: 49009 +/− 9100; UVB protection after ethanol wash compared to the initial protection before washing ([5]; pig skin, 2 h incubation, DMDA): decreased three times |
| 358 nm | 357 nm | 357 nm | No degradation |  |  |  |  |  | 357 nm | did not modify | 356 nm | 356 nm | 97.84% | 98.13% | ⅓ | CCN(CC)c1ccc(C(=O)c2ccccc2C(=O)NCCCCCCOC(=O)C(C#N)=C(c2ccccc2)c2ccccc2)c(O)c1 [Compound #4, 6-[[2-[4-(diethylamino)-2-hydroxy-benzoyl]benzoyl]amino]hexyl 2-cyano-3,3-diphenyl-prop-2-enoate] | soluble at ratio ([6]; Dimethyl capramide (Spectrasolv DMDA)): 1/1 |

Second part, the compound before the results:

| Structure (SMILES) | Absorbance peak, Without UV irradiation [1] | Absorbance peak, Irradiation 2000 J/dm2 [1] | Absorbance peak, Irradiation 4000 J/dm2 [1] | degradation observed by HPLC after irradiation ([2]; Ethanol) | Absorbance peak, Without UV irradiation, first or only peak ([1]; Dubdis) | Absorbance peak, Without UV irradiation, second peak ([1]; Dubdis) | Absorbance peak, Irradiation 4000 J/dm2, first or only peak ([1]; Dubdis) | Absorbance peak, Irradiation 4000 J/dm2, second peak ([1]; Dubdis) | degradation observed by HPLC after irradiation ([2]; Dubdis) | λmax after irradiation [1] | Effect of irradiation on UV absorbance profile ([1]; UVB and UVA range) | λmax ([3]; DMSO) | λmax ([3]; Ethanol) | purity by HPLC after irradiation ([2]; Ethanol) | purity by HPLC, non-irradiated ([2]; Ethanol) | soluble at ratio ([6]; Cetiol B (Dibutyl Adipate)) | other results |
| --- | --- | --- | --- | --- | --- | --- | --- | --- | --- | --- | --- | --- | --- | --- | --- | --- | --- |
| CCN(CC)c1ccc(C(=O)c2ccccc2C(=O)NCCCCCCCCOC(=O)C(C#N)=C(c2ccccc2)c2ccccc2)c(O)c1 [Compound #2, 8-[[2-[4-(diethylamino)-2-hydroxy-benzoyl]benzoyl]amino]octyl 2-cyano-3,3-diphenyl-prop-2-enoate] | 357 nm | 357 nm | 357 nm | No degradation |  |  |  |  |  | 357 nm | did not modify | 356 nm | 356 nm | 98.80% | 99.17% | 1/1 | λmax ([3]; Cetiol B (Dibutyl Adipate)): 355 nm; λmax [3, 9]: 355 nm; λmax ([3]; Dubdis (diisopropyl sebacate), listed as OOD): 355 nm and 356 nm; soluble at ratio [6, 9]: ⅕; soluble at ratio ([6]; Dubdis (Diisopropyl sebacate)): 1/1; UVA and UVB protections of the pig skin compared to the mix OCR+DHHB ([5]; 2 h incubation, Dottisol): similar; UVA Fluorescence (Ex355/Em460) [5, 10]: 2881 +/− 617; UVB Fluorescence (Ex300/Em460) [5, 10]: 15248 +/− 3227 |
| CCCCC(CC)COc1ccc(-c2nc(-c3ccc(OC)cc3)nc(-c3ccc(OCC(CC)CCCC)cc3O)n2)c(O)c1 (stereo not shown) [BEMT, 6,6′-(6-(4-methoxyphenyl)-1,3,5-triazine-2,4-diyl)bis(3-((2-ethylhexyl)oxy)phenol), reference compound] |  |  |  |  | 310 nm | 351 nm | 310 nm | 351 nm | No degradation |  |  |  |  |  |  |  |  |
| CCCCC(CC)COC(=O)C(C#N)=C(c1ccccc1)c1ccccc1 (stereo not shown) [OCR, 2-ethylhexyl 2 cyano-3,3-diphenylacrylate, reference compound] | 304 nm | 304 nm | 304 nm | No degradation | 305 nm |  | 309 nm |  | No degradation |  |  |  |  |  |  |  |  |
